Earlier results as cited in publication PMC3902791 (Molecular imaging and biology : MIB : the official …, 2012).
Where two headings read alike, the source gives them in different places.

Experiments:
[1] = humans; cited from earlier work
[2] = test system: monkey; conditions: intravenous injection; cited from earlier work
[3] = test system: dog; conditions: cited from earlier work

C[11C](=O)O [^11C-ACE, ^11C-labeled acetate]
effective dose [1]: 0.0049 mSv/MBq | radiation absorbed dose, intestines [1]: 0.01–0.011 mGy/MBq | radiation absorbed dose, kidneys [1]: 0.0093 mGy/MBq | radiation absorbed dose, liver [1]: 0.006 mGy/MBq | radiation absorbed dose, pancreas [1]: 0.017 mGy/MBq | radiation absorbed dose, urinary bladder [1]: 0.0028 mGy/MBq

O=C([O-])CF.[Na+] [sodium fluoroacetate]
LD50 [2]: 5 mg/kg | LD50 ([3]; intravenously): 0.06 mg/kg | LD50 ([3]; orally): 0.066 mg/kg
